In brackets after ≈: the same amount, converted by molar mass.
Assays:
Format in all cases: functional
Staphylococcus aureus [1] = assay: In vitro antibacterial activity against vancomycin intermediate resistant Staphylococcus aureus (CL5706)
Enterococcus faecalis [2] = assay: Tested in vitro for its antibacterial activity against vancomycin sensitive Enterococcus faecalis (MB2864)
Staphylococcus aureus [3] = assay: Tested in vitro for its antibacterial activity against methicillin sensitive Staphylococcus aureus (MB2985)
Staphylococcus aureus [4] = assay: Tested in vitro for its antibacterial activity against methicillin resistant Staphylococcus aureus (COL)
Staphylococcus aureus [5] = assay: In vitro antibacterial activity against vancomycin intermediate resistant Staphylococcus aureus (CL5705)
Enterococcus faecalis [6] = assay: Tested in vitro for its antibacterial activity against vancomycin resistant Enterococcus faecalis (MB4877)
Enterococcus faecium [7] = assay: Tested in vitro for its antibacterial activity against vancomycin sensitive Enterococcus faecium (RLA1)
Enterococcus faecium [8] = assay: Tested in vitro for its antibacterial activity against vancomycin resistant Enterococcus faecium (CL4931)
Enterococcus faecium [9] = assay: Tested in vitro for its antibacterial activity against vancomycin resistant Enterococcus faecium (MB5244)
Staphylococcus aureus [10] = assay: Tested in vitro for its antibacterial activity against methicillin resistant Staphylococcus aureus (MH76)
Staphylococcus aureus [11] = assay: Tested in vitro for its antibacterial activity against methicillin resistant Staphylococcus aureus (Mh76)

| Structure (SMILES) | MIC (Staphylococcus aureus [1]) [µg/mL] | MIC (Enterococcus faecalis [2]) [µg/mL] | MIC (Staphylococcus aureus [3]) [µg/mL] | MIC (Staphylococcus aureus [4]) [µg/mL] | MIC (Staphylococcus aureus [5]) [µg/mL] | MIC (Enterococcus faecalis [6]) [µg/mL] | MIC (Enterococcus faecium [7]) [µg/mL] | MIC (Enterococcus faecium [8]) [µg/mL] | MIC (Enterococcus faecium [9]) [µg/mL] | MIC (Staphylococcus aureus [10]) [µg/mL] | MIC (Staphylococcus aureus [11]) [µg/mL] |
| --- | --- | --- | --- | --- | --- | --- | --- | --- | --- | --- | --- |
| CN[C@H](CC(C)C)C(=O)N[C@H]1C(=O)N[C@@H](CC(N)=O)C(=O)N[C@H]2C(=O)N[C@H]3C(=O)N[C@H](C(=O)N[C@H](C(=O)O)c4cc(O)cc(O)c4-c4cc3ccc4O)[C@H](O)c3ccc(c(Cl)c3)Oc3cc2cc(c3OC2OC(CN(C)C)C(O)C(O)C2OC2CC(C)(NCc3ccc(OCc4ccc(Cl)c(Cl)c4)cc3)C(O)C(C)O2)Oc2ccc(cc2Cl)[C@H]1O (some centres undefined) | 0.5 (≈ 0.287 µM) | 1 (≈ 0.574 µM) | ≤ 0.03 | 0.5 (≈ 0.287 µM) | 1 (≈ 0.574 µM) | 16 (≈ 9.19 µM) | ≤ 0.03 | 32 (≈ 18.4 µM) | 1 (≈ 0.574 µM) | 0.25 (≈ 0.144 µM) |  |
| CN[C@H](CC(C)C)C(=O)N[C@H]1C(=O)N[C@@H](CC(N)=O)C(=O)N[C@H]2C(=O)N[C@H]3C(=O)N[C@H](C(=O)N[C@H](C(=O)O)c4cc(O)cc(O)c4-c4cc3ccc4O)[C@H](O)c3ccc(c(Cl)c3)Oc3cc2cc(c3OC2OC(C[N+]34CCN(CC3)CC4)C(O)C(O)C2OC2CC(C)(NCc3ccc(OCc4ccc(Cl)c(Cl)c4)cc3)C(O)C(C)O2)Oc2ccc(cc2Cl)[C@H]1O (some centres undefined) | 2 | 2 | 1 | 1 | 2 | 8 | 0.5 | > 32 | 1 | 1 |  |
| CN[C@H](CC(C)C)C(=O)N[C@H]1C(=O)N[C@@H](CC(N)=O)C(=O)N[C@H]2C(=O)N[C@H]3C(=O)N[C@H](C(=O)N[C@H](C(=O)O)c4cc(O)cc(O)c4-c4cc3ccc4O)[C@H](O)c3ccc(c(Cl)c3)Oc3cc2cc(c3O[C@@H]2O[C@H](CO)[C@@H](O)[C@H](O)[C@H]2O[C@H]2C[C@](C)(N)[C@H](O)[C@H](C)O2)Oc2ccc(cc2Cl)[C@H]1O [VANCOMYCIN] | 8 (≈ 5.52 µM) |  |  |  |  | 2050 (≈ 1410 µM) |  | 2050 (≈ 1410 µM) | 16 (≈ 11 µM) |  |  |
| CN[C@H](CC(C)C)C(=O)N[C@H]1C(=O)N[C@@H](CC(N)=O)C(=O)N[C@H]2C(=O)N[C@H]3C(=O)N[C@H](C(=O)N[C@H](C(=O)O)c4cc(O)cc(O)c4-c4cc3ccc4O)[C@H](O)c3ccc(c(Cl)c3)Oc3cc2cc(c3OC2OC(C[N+](C)(C)CCO)C(O)C(O)C2OC2CC(C)(NCc3ccc(OCc4ccc(Cl)c(Cl)c4)cc3)C(O)C(C)O2)Oc2ccc(cc2Cl)[C@H]1O (some centres undefined) | 2 | 2 | 2 | 1 | 2 | 8 | 0.5 | > 64 | 4 | 1 |  |
| CNCC1OC(Oc2c3cc4cc2Oc2ccc(cc2Cl)[C@@H](O)[C@@H](NC(=O)[C@@H](CC(C)C)NC)C(=O)N[C@@H](CC(N)=O)C(=O)N[C@H]4C(=O)N[C@H]2C(=O)N[C@H](C(=O)N[C@H](C(=O)O)c4cc(O)cc(O)c4-c4cc2ccc4O)[C@H](O)c2ccc(c(Cl)c2)O3)C(OC2CC(C)(NCc3ccc(OCc4ccc(Cl)c(Cl)c4)cc3)C(O)C(C)O2)C(O)C1O (some centres undefined) | 0.25 (≈ 0.145 µM) | 0.25 (≈ 0.145 µM) | ≤ 0.03 | 0.12 (≈ 0.0695 µM) | 1 (≈ 0.579 µM) | 4 (≈ 2.32 µM) | 0.03 (≈ 0.0174 µM) | 32 (≈ 18.5 µM) | 1 (≈ 0.579 µM) | 0.12 (≈ 0.0695 µM) |  |
| CN[C@H](CC(C)C)C(=O)N[C@H]1C(=O)N[C@@H](CC(N)=O)C(=O)N[C@H]2C(=O)N[C@H]3C(=O)N[C@H](C(=O)N[C@H](C(=O)O)c4cc(O)cc(O)c4-c4cc3ccc4O)[C@H](O)c3ccc(c(Cl)c3)Oc3cc2cc(c3OC2OC(C[N+](C)(C)CCN(C)C)C(O)C(O)C2OC2CC(C)(NCc3ccc(OCc4ccc(Cl)c(Cl)c4)cc3)C(O)C(C)O2)Oc2ccc(cc2Cl)[C@H]1O (some centres undefined) | 4 | 4 | 2 | 2 | 2 | > 64 | 1 | > 64 | 8 |  | 2 |
| CN[C@H](CC(C)C)C(=O)N[C@H]1C(=O)N[C@@H](CC(N)=O)C(=O)N[C@H]2C(=O)N[C@H]3C(=O)N[C@H](C(=O)N[C@H](C(=O)O)c4cc(O)cc(O)c4-c4cc3ccc4O)[C@H](O)c3ccc(c(Cl)c3)Oc3cc2cc(c3OC2OC(C[N+](C)(C)Cc3ccccc3)C(O)C(O)C2OC2CC(C)(NCc3ccc(OCc4ccc(Cl)c(Cl)c4)cc3)C(O)C(C)O2)Oc2ccc(cc2Cl)[C@H]1O (some centres undefined) | 1 | 2 | 0.25 | 0.5 | 1 | 16 | 0.25 | > 64 | 1 | 0.25 |  |
| CN[C@H](CC(C)C)C(=O)N[C@H]1C(=O)N[C@@H](CC(N)=O)C(=O)N[C@H]2C(=O)N[C@H]3C(=O)N[C@H](C(=O)N[C@H](C(=O)O)c4cc(O)cc(O)c4-c4cc3ccc4O)[C@H](O)c3ccc(c(Cl)c3)Oc3cc2cc(c3OC2OC(C[N+](C)(C)C)C(O)C(O)C2OC2CC(C)(NCc3ccc(OCc4ccc(Cl)c(Cl)c4)cc3)C(O)C(C)O2)Oc2ccc(cc2Cl)[C@H]1O (some centres undefined) | 2 | 1 | 0.5 | 0.5 | 2 | 16 | 0.5 | > 64 | 1 | 0.5 |  |

Reference: ChEMBL document CHEMBL1136062 (2002)
